Results taken from patent US20080261994A1, “CYCLOPROPANE COMPOUNDS AND PHARMACEUTICAL USE THEREOF” (Japan Tobacco Inc., priority 2003, published 2008).
Read-outs that look alike come from different tables or passages of the source.

Key:
Format in all cases: biochemical
[1] = molecular target: T1, aggrecanase-1 (Homo sapiens, UniProt O75173); experiment: Aggrecanase-1 inhibitory action (Particle Assay, GAG release from aggrecan-containing polyacrylamide particles)
T1 sequence (O75173 213-837): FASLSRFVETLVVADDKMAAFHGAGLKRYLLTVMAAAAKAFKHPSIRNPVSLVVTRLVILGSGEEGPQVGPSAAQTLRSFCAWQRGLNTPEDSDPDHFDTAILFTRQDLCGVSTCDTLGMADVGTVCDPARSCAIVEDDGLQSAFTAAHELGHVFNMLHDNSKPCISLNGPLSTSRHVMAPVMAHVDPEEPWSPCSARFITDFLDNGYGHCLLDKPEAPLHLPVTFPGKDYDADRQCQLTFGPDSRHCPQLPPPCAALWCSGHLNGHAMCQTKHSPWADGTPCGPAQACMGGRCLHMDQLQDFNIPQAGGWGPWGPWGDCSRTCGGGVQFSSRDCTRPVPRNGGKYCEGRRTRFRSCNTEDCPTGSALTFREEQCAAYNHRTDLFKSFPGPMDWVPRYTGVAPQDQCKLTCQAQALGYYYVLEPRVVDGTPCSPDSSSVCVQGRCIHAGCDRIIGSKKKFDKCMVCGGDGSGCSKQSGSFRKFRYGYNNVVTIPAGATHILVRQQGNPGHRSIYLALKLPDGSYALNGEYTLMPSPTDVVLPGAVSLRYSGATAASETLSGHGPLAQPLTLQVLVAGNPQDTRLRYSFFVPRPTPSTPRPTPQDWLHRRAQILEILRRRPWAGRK
Protocol: Particle Assay was used for determination of aggrecanase activity.
(§1) The enzyme and substrate were diluted with Tris-HCl buffer, and test compounds were diluted with dimethyl sulfoxide (DMSO).
Test compounds and the enzyme were added into 96-well plate, and polyacrylamide particles containing aggrecan were added as a substrate and the mixture was incubated at 37° C. for 15 hr.
After incubation, the supernatant was transferred to another plate, and mixed with 1,9-dimethylmethylene blue. The absorbence at 595 nm was measured to quantify the amount of glycosaminoglycan (GAG) released in the reaction supernatant. Whale chondroitin sulfate was used as the standard of GAG. The inhibitory activity of the compound in each well (%) was calculated based on the values of enzyme-free well and inhibitor-free well. The inhibitory activity of the compound was represented as […] (μM).

[2] = molecular target: T2, MMP-1 (Homo sapiens, UniProt P03956); experiment: MMP-1 inhibitory action (Type I collagen Activity Measurement kit, FITC-labeled collagen type I)
T2 sequence (P03956 100-469): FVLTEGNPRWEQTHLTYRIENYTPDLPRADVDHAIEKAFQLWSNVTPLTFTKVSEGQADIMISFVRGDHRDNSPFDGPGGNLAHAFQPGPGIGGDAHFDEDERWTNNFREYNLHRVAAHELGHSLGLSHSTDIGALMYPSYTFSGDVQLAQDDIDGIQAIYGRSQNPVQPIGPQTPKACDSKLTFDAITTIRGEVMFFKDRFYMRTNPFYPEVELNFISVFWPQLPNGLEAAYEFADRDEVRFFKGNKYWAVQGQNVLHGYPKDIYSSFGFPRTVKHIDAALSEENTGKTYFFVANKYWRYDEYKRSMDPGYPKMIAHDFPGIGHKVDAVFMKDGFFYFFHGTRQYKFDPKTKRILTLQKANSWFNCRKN
Protocol: For MMP-1 Assay, Type I collagen Activity Measurement kit (YAGAI YU-72013) modified to a 96-well plate format was used.
The principle of the kit is based on the property of collagen that becomes soluble in ethanol after being cleaved by MMP-1.
as §1
The enzyme and test compounds were added into 96-well plate, and fluorescein isothiocianate (FITC)-labeled collagen type I was added as a substrate and the mixture was incubated at 37° C. for 3 hr.
The reaction was terminated by addition of Tris-HCl buffer containing ethanol. After centrifugation, the supernatant containing denatured substrate was transferred to another 96-well plate. The collagenase activity of MMP-1 was determined by measuring FITC fluorescence intensity (excitation wavelength 485 nm, emission wavelength 530 nm) of each well. The inhibitory activity of the compound in each well (%) was calculated based on the values of enzyme-free well and inhibitor-free well. The inhibitory activity of the compound was represented as IC50 (μM).

[3] = molecular target: T3, Recombinant Human MMP-13 (Homo sapiens, UniProt P45452); experiment: MMP-13 inhibitory activity (MMP-13 specific fluorescent substrate with quencher)
T3 construct: purchased R&D systems 511-MM
Protocol: Inhibitory activity of tested compounds on MMP-13 was measured using MMP-13 specific fluorescent substrate with quencher.
as §1
Test compounds and the enzyme (Recombinant Human MMP-13: R&D systems, 511-MM) were added into 96-well plate. The reaction was initiated by adding synthetic substrate (7-MCA-Pro-CHA-Gly-NVal-His-Ala-DPA: enzyme systems products, Met-06) into the plate. After incubation at 25° C. for 1 h, the reaction was terminated by addition of reaction terminating solution containing acetic acid. Fluorescence intensity of each well was measured (Ex: 325 nm, […] 405 nm) and the MMP-13 inhibitory activity of the compound in each well (%) was calculated based on the values of enzyme-free well and inhibitor-free well. The inhibitory activity of the compound was represented as IC50 (μM).

[4] = aggrecanase-1 inhibitory action, read-out: IC50 AG1 (Experimental Example 1)
[5] = MMP-1 inhibitory action, FITC-labeled collagen type I, 37° C. for 3 hr, read-out: IC50 MMP1 (Experimental Example 2)
[6] = Recombinant Human MMP-13, fluorescent substrate, 25° C. for 1 h, read-out: IC50 MMP13 (Experimental Example 3)
[7] = Experimental Example 1, read-out: IC50 AG1
[8] = Experimental Example 2, read-out: IC50 MMP1
[9] = Experimental Example 3, read-out: IC50 MMP13

SMILES | IC50 [1, 4] | IC50 [2, 5] | IC50 [3, 6] | IC50 [1, 7] | IC50 [2, 8] | IC50 [3, 9]
CC(C)(C)C#Cc1ccc(S(=O)(=O)N[C@@]2(C(=O)O)C[C@@H]2c2ccccc2)s1 [Example 2-132] | ≥ 10000 nM | ≥ 10000 nM | ≥ 10000 nM |  |  | 
O=C(O)C1(NS(=O)(=O)c2ccc(-c3ccc(Cl)cc3)s2)CC1c1ccc(OCc2ccccc2)cc1 (stereo not drawn) [Example 2-225] | ≥ 1000 nM | ≥ 10000 nM | < 1000 nM |  |  | 
C[C@]1(c2ccccc2)C[C@@]1(NS(=O)(=O)c1ccc(-c2ccc(F)c(O)c2)s1)C(=O)O [Example 2-600] |  |  |  | < 1000 nM | ≥ 1000 nM | < 1000 nM
Cn1cc(-c2ccc(S(=O)(=O)N[C@@]3(C(=O)O)C[C@]3(C)c3ccccc3)s2)nn1 [Example 2-587] |  |  |  | ≥ 1000 nM | ≥ 1000 nM | < 1000 nM
CC1[C@H](c2ccccc2)[C@]1(NS(=O)(=O)c1ccc(-n2cc(C(F)(F)F)cn2)nc1)C(=O)O (stereo partly drawn) [Example 2-556] |  |  |  | ≥ 1000 nM | ≥ 1000 nM | < 100 nM
CC1[C@H](c2ccccc2)[C@]1(NS(=O)(=O)N1CCN(C(=O)Nc2ccccc2)CC1)C(=O)O (stereo partly drawn) [Example 2-11, (1S,2R,3R)-2-methyl-3-phenyl-1-(4-phenylcarbamoyl-piperazine-1-sulfamoylamino)-cyclopropanecarboxylic acid] | ≥ 1000 nM | ≥ 1000 nM | ≥ 1000 nM |  |  | 
O=C(CO)NCC1(c2ccccc2)CC1(NS(=O)(=O)c1ccc(-c2ccc(Cl)cc2)s1)C(=O)O (stereo not drawn) [Example 2-399] |  |  |  | < 1000 nM | ≥ 1000 nM | < 1000 nM
O=C(O)[C@]1(NS(=O)(=O)c2ccc(-c3ccc([N+](=O)[O-])cc3)s2)C[C@@H]1c1ccccc1 [Example 2-388] |  |  |  | < 1000 nM | ≥ 1000 nM | < 1000 nM
COCC1C(c2ccccc2)C1(NS(=O)(=O)c1ccc(-c2cc(C(F)(F)F)on2)s1)C(=O)O (stereo not drawn) [Example 2-539] |  |  |  | < 100 nM | < 1000 nM | < 100 nM
CN(Cc1cccnc1)c1cccc(C2CC2(NS(=O)(=O)c2ccc(-c3cc(C(F)(F)F)on3)s2)C(=O)O)c1 (stereo not drawn) [Example 2-214] | < 100 nM | < 1000 nM | < 100 nM |  |  | 
CC1[C@H](c2ccccc2)[C@]1(NS(=O)(=O)N1CCn2c(nc3cc(Cl)ccc32)C1)C(=O)O (stereo partly drawn) [Example 2-445] |  |  |  | < 1000 nM | ≥ 10000 nM | < 1000 nM
C[C@]1(c2ccccc2)C[C@@]1(NS(=O)(=O)c1ccc(-c2cc(Cl)cc(Cl)c2)s1)C(=O)O [Example 2-448] |  |  |  | ≥ 1000 nM | ≥ 10000 nM | ≥ 1000 nM
O=C(O)[C@]1(NS(=O)(=O)/C=C/c2ccccc2)C[C@@H]1c1ccccc1 [Example 2-140] | ≥ 10000 nM | ≥ 10000 nM | ≥ 1000 nM |  |  | 
CC1[C@H](c2ccccc2)[C@]1(NS(=O)(=O)c1ccc(-n2cc(C(C)(C)O)cn2)s1)C(=O)O (stereo partly drawn) [Example 2-523] |  |  |  | < 1000 nM | < 1000 nM | < 100 nM
O=C(O)C1(NS(=O)(=O)N2CC=C(c3ccc(Cl)cc3)CC2)CC1c1ccccc1 (stereo not drawn) [Example 2-149] | ≥ 1000 nM | ≥ 10000 nM | < 100 nM |  |  | 
COc1cnn(-c2ccc(S(=O)(=O)N[C@@]3(C(=O)O)C[C@@H]3c3ccccc3)cn2)c1 [Example 2-482] |  |  |  | ≥ 1000 nM | ≥ 10000 nM | < 100 nM
O=C(O)C1(NS(=O)(=O)c2ccc(-c3cc(C(F)(F)F)on3)s2)CC1c1cccc(CO)c1 (stereo not drawn) [Example 2-283] |  |  |  | < 1000 nM | ≥ 1000 nM | < 100 nM
O=C(Nc1cccc(C2CC2(NS(=O)(=O)c2ccc(-c3ccc(Cl)cc3)cc2)C(=O)O)c1)c1ccccn1 (stereo not drawn) [Example 1-62] | < 1000 nM | ≥ 1000 nM | < 100 nM |  |  | 
CC(C)(C)OC(=O)Nc1ccccc1C1CC1(NS(=O)(=O)c1ccc(-c2ccc(Cl)cc2)s1)C(=O)O (stereo not drawn) [Example 2-217] | < 1000 nM | ≥ 10000 nM | < 1000 nM |  |  | 
CN(CCO)C(=O)OCC1(c2ccccc2)CC1(NS(=O)(=O)c1ccc(-c2cc(C(F)(F)F)on2)s1)C(=O)O (stereo not drawn) [Example 2-332] |  |  |  | < 1000 nM | ≥ 1000 nM | < 1000 nM
O=C(O)[C@]1(NS(=O)(=O)c2ccc(C3=NOC(O)(C(F)(F)F)C3)s2)C[C@@H]1c1ccccc1 (stereo partly drawn) [Example 2-35] | < 1000 nM | ≥ 10000 nM | < 1000 nM |  |  | 
CCNC(=O)OCC1(c2ccccc2)CC1(NS(=O)(=O)c1ccc(-c2cc(C(F)(F)F)on2)s1)C(=O)O (stereo not drawn) [Example 2-321] |  |  |  | < 1000 nM | ≥ 1000 nM | < 1000 nM
CC(=O)N1CCC2C(c3ccccc31)C2(NS(=O)(=O)c1ccc(-c2ccc(Cl)cc2)s1)C(=O)O (stereo not drawn) [Example 2-439] |  |  |  | < 100 nM | ≥ 1000 nM | < 100 nM
C[C@]1(c2ccccc2)C[C@@]1(NS(=O)(=O)c1ccc(-c2ncc(Br)cn2)s1)C(=O)O [Example 2-414] |  |  |  | < 1000 nM | ≥ 1000 nM | < 1000 nM
CC1[C@H](c2ccccc2)[C@]1(NS(=O)(=O)N1CCN(c2ccc(Cl)nn2)CC1)C(=O)O (stereo partly drawn) [Example 2-503] |  |  |  | < 1000 nM | ≥ 1000 nM | < 1000 nM
O=C(O)[C@]1(NS(=O)(=O)/C=C/c2cccc(Cl)c2)C[C@@H]1c1ccccc1 [Example 2-153] | ≥ 10000 nM | ≥ 10000 nM | ≥ 1000 nM |  |  | 
O=C(CCO)NCC1(c2ccccc2)CC1(NS(=O)(=O)c1ccc(-c2ccc(Cl)cc2)s1)C(=O)O (stereo not drawn) [Example 2-395] |  |  |  | < 1000 nM | ≥ 10000 nM | < 1000 nM
